Data taken from patent US20220184222A1, “BICYCLE TOXIN CONJUGATES AND USES THEREOF” (BicycleTx Limited, priority 2019, published 2022).
Starred links: 1 amine or outer side, 2 acyl side, 3 side chain; linkers in the order of their positions; H or OH if unused. Non-standard residues stand in square brackets, D forms with d. Residues, ends and D or L forms follow the SMILES beside them. *: point of attachment. Dolaproine = CO[C@@H]([C@@H]1CCCN1)[C@@H](C)C(=O)O; Dil = CC[C@H](C)[C@H](NC)[C@@H](CC(=O)O)OC; PABC = O=C(OCc1ccc(N[*:1])cc1)[*:2]; X1 = O=C(CCCC(=O)*)ON1C(=O)CCC1=O; X2 = C[C@@H](N*)[C@@H](O)c1ccccc1; Cit = NC(=O)NCCC[C@H](N)C(=O)O; NMeV = CN[C@H](C(=O)O)C(C)C

Assays:
Format in all cases: in vivo, Mus musculus
[1] = tested on: CTG-2540; assay: Champions TumorGraft NSCLC PDX efficacy, model CTG-2540
Procedure: (§1) Mice were implanted subcutaneously into the left flank with tumor fragments from one of the various models. After tumors grew to an average of 150-300 mm^3, mice were treated by IV administration Q7Dx4 (n=2) with vehicle or 3 mg/kg of BT5528. Effects on tumor growth were evaluated by measuring percent tumor growth inhibition (% TGI), and the number of complete responders (CR), partial responders (PR), and tumor-free survivors (TFS). Tolerability was assessed by body weight loss, lethality, and clinical signs of adverse treatment-related side effects. Tumor volumes and body weights were measured twice a week.
(§2) Dosing solutions of BT5528 […] were pre-formulated. These dosing solutions were stored at −80° C. in the dark. On each day of dosing, a frozen aliquot of each test agent was thawed, stored at 2-8° C. and used for dosing.
(§3) The animals used in this study are described below: • Species: Mus musculus • Strain: Athymic Nude-Foxn1^nu (immune-compromised) • Source: Envigo (Indianapolis, Ind., USA) • Number of animals per group: 2 • Age and sex: At least 6-8 weeks of age at start of dosing, female • Weight: At least 18 grams at start of dosing • Acclimation period: 3 days
(§4) Stock mice were implanted with tumor cells from Champions TumorGraft® models CTG-0160, CTG-0170, CTG-0178, CTG-0192, CTG-0363, CTG-0808, CTG-0838, CTG-0848, CTG-1212, CTG-1502, CTG-1535, CTG-2011, CTG-2393, CTG-2539 or CTG-2540. After the tumors reached 1000-1500 mm^3, they were harvested and the tumor fragments (approximately 5×5×5 mm^3) were implanted SC in the left flank of the female study mice. Each animal was implanted with a specific passage lot and documented. Tumor growth was monitored twice a week using digital calipers and the tumor volume (TV) was calculated using the formula (0.52×[length×width^2]). When the TV reached an average volume of 150-300 mm^3, animals were matched by tumor size and assigned into Vehicle Control and treatment groups (n=2/group) and dosing was initiated on Day 0. After the initiation of dosing on Day 0, animals were weighed twice per week using a digital scale and TV was measured twice per week and also on the final day of study. The study was completed when the mean tumor volume of Vehicle Control reached 1500 mm^3 or up to Day 60, whichever occurred first.
(§5) Beginning on Day 0, animals were observed daily and weighed twice weekly using a digital scale; data including individual and mean gram weights, mean percent weight change versus Day 0 (% vD0) were recorded for each group and % vD0 plotted at study completion. […] Treatment resulting in a mean % vD0>20% and/or >10% mortality was considered above the maximum tolerated dose. Maximum mean % vD0 (weight nadir) for each treatment group was reported at study completion.
(§6) Inhibition of tumor growth was determined by calculating the percent TGI (100%×[1−(final MTV−initial MTV of a treated group)/(final MTV−initial MTV of the control group)]). Treatment started on Day 0.
(§7) Additional endpoints used to evaluate efficacy were: the number of complete responders (CR), partial responders (PR), and tumor-free survivors (TFS). PRs were considered exclusive of CRs, as were TFS.
(§8) Statistical analyses of anti-tumor efficacy were performed using one-way ANOVA followed by Dunnett's multiple comparisons test (GraphPad Prism version 8.2.0). Significant p-values=<0.05.
Animals were dosed according to the schedule on Table 7-1. The study was terminated on Day 28.

[2] = tested on: CTG-0838; assay: Champions TumorGraft NSCLC PDX efficacy, model CTG-0838
Procedure: as §1, §2, §3, §4, §5, §6, §7, §8
(§9) Animals were dosed according to the schedule on Table 7-1. The study was terminated on Day 27.

[3] = tested on: CTG-0848; assay: Champions TumorGraft NSCLC PDX efficacy, model CTG-0848
Procedure: as §1, §2, §3, §4, §5, §6, §7, §8, §9

[4] = CTG-2540, 3 mg/kg IV Q7Dx4, Day 0-28
[5] = CTG-0838, 3 mg/kg IV Q7Dx4, Day 0-27
[6] = CTG-0848, 3 mg/kg IV Q7Dx4, Day 0-27

In the case of `CC[C@H](C)[C@@H]([C@@H](CC(=O)N1CCC[C@H]1[C@H](OC)[C@@H](C)C(=O)N[C@H](C)[C@@H](O)c1ccccc1)OC)N(C)C(=O)[C@@H](NC(=O)[C@H](C(C)C)N(C)C(=O)OCc1ccc(NC(=O)[C@H](CCCNC(N)=O)NC(=O)[C@@H](NC(=O)CCCC(=O)ON2C(=O)CCC2=O)C(C)C)cc1)C(C)C` [BT5528] (X1-V[Cit][PABC][NMeV]V[Dil][Dolaproine]-X2), the “mean body weight loss” value ([1]; 3 mg/kg IV Q7Dx4) is reported as “no mean body weight loss”, the “MTV (mean tumor volume)” value ([1]; 3 mg/kg IV Q7Dx4, Day 28) is reported as 692±156 mm^3 and the TGI ([1]; 3 mg/kg IV Q7Dx4, Day 28) is reported as 75%. For the same molecule, the “# CR (complete responders)” value [1, 4] was 0/0/0, the “# PR (partial responders)” value [1, 4] was 0/0/0 and the “# TFS (tumor-free survivors)” value [1, 4] was 0/0/0. For the same molecule, the “% TGI” value ([1]; CTG-2540, 3 mg/kg IV Q7Dx4, Day 28) was 75%, the “Day 28 Tumor Volume Mean TV ± SEM” value ([1]; CTG-2540, BT5528 3 mg/kg IV Q7Dx4, Day 28, n=2) was 692 ± 156 mm^3 and the “mean body weight loss” value ([2]; 3 mg/kg IV Q7Dx4) was “no mean body weight loss”. For the same molecule, the “MTV (mean tumor volume)” value ([2]; 3 mg/kg IV Q7Dx4, Day 27) was 269±128 mm^3, the TGI ([2]; 3 mg/kg IV Q7Dx4, Day 27) was 97% and the “# CR (complete responders)” value [2, 5] was 0/0/0. For the same molecule, the “# PR (partial responders)” value [2, 5] was 0/0/0, the “# TFS (tumor-free survivors)” value [2, 5] was 0/0/0 and the “% TGI” value ([2]; CTG-0838, 3 mg/kg IV Q7Dx4, Day 27) was 97%. For the same molecule, the “Day 27 Tumor Volume Mean TV ± SEM” value ([2]; CTG-0838, BT5528 3 mg/kg IV Q7Dx4, Day 27, n=2) was 269 ± 128 mm^3, the “MTV (mean tumor volume)” value ([3]; 3 mg/kg Q7Dx4, Day 27) was 512±113 mm^3 and the TGI ([3]; 3 mg/kg Q7Dx4, Day 27) was 56%. The “# CR (complete responders)” value [3, 6] was 0/0/0, the “# PR (partial responders)” value [3, 6] was 0/0/0 and the “# TFS (tumor-free survivors)” value [3, 6] was 0/0/0. For the same molecule, the “% TGI” value ([3]; CTG-0848, 3 mg/kg IV Q7Dx4, Day 27) was 56% and the “Day 27 Tumor Volume Mean TV ± SEM” value ([3]; CTG-0848, BT5528 3 mg/kg IV Q7Dx4, Day 27, n=2) was 512 ± 113 mm^3.
